{
  "source": "patent US20050112573A1",
  "about": "“Method of detecting toxic substance” (priority 2001, published 2005)",
  "tested_on": "yeast genes (level of expressed mRNA)",
  "assay": "DNA chip analysis of expressed mRNA of yeast genes after 2 h culture with a toxic chemical substance",
  "assay_type": "cell-based, Saccharomyces cerevisiae S288C",
  "experimental": "Yeast (Saccharomyces cerevtisiae S288C (α SUC2mal mel gap2 CUP1)) were cultured at 25° C. on YPD medium (yeast extract 1%, polypepton 2%, glucose 2%). One of toxic chemical substances was added to the cell at logarithmic growth phase, and the cell was further cultured for two hours. Cell was cultured without any chemical substance in the same condition, and was used as control. Concentrations of the chemical substances were defined to inhibit the growth of the yeast but not lead to death.\nAfter the completion of cultivation, the culture was centrifuged to collect the cells. To the cells, sodium acetate buffer (50 mM sodium acetate, 10 mM EDTA, 1% SDS) was added, and the mixture was shaken at 65° C. for five minutes, followed by returning to room temperature, and obtaining the supernatant, which procedure was repeated two times. To the supernatant, ½ amount of a solution of phenol/chloroform was added, and the mixture was centrifuged to give a supernatant, which was added with an equal amount of chloroform, and the mixture was centrifuged to give a supernatant. To the supernatant, an equal amount of isopropanol containing 0.3 M sodium acetate was added, and the mixture was allowed to stand at room temperature for 30 minutes, after which the mixture was centrifuged to give a sediment of the whole RNAs. Seventy % ethanol was added to the sediment, and the mixture was again centrifuged to give a sediment, which was then dried and dissolved in water. mRNA was isolated from the whole RNAs as followings. In view of the fact that a poly A chain is attached to the 3′ terminus of mRNA, a polynucleotide having a poly T structure which was immobilized on the surface of latex beads was used to trap the mRNA, and then the mRNA was washed and eluted with spine column (Oligotex-dT30<Super>mRNA Purification Kit, Takara). Reverse transcription of the mRNA was conducted with a reverse transcriptase (Super Script II Reverse Transcriptase; catalogue No. 18064-014, GibcoBRL) using fluorescence-labeled nucleotides to give cDNAs that were introduced with Cy3-dUTP or Cy5-dUTP during the reverse transcription.\nThe labeled cDNAs were dissolved in TE buffer (10 mM Tris-HCl/1 mM EDTA, pH8.0), and the solution was dropped on the DNA chip containing the whole genes of yeast (DNA Chip Research Inc. Japan) so that the cDNAs were hybridized on the DNA chip at 65° C. for over 12 hours. The fluoresces intensity of the DNA chip was read with a scanner, and the ratio relative to the fluorescence intensity resulting from the absence of chemical substance was estimated as the following, which is shown in Tables 1 to 9: [formula]\nIn the Tables, “Intensity” indicated in the rightmost column is a value of the level of expressed mRNA of each gene in control cells as divided by the average level of the expressions of the whole genes.",
  "data": [
    {"smiles": "CN(C)C(=S)SSC(=S)N(C)C", "note": "[(10), Tetramethylthiuram disulfide]", "values": [
      {"measurement": "The level of expressed mRNA in the presence of chemical substance/The level of expressed mRNA in the absence of chemical substance", "setting": "yeast gene YKL013C", "value": 1.4},
      {"measurement": "The level of expressed mRNA in the presence of chemical substance/The level of expressed mRNA in the absence of chemical substance", "setting": "yeast gene YKL039W", "value": 3.3},
      {"measurement": "The level of expressed mRNA in the presence of chemical substance/The level of expressed mRNA in the absence of chemical substance", "setting": "yeast gene YKL041W", "value": 1.5},
      {"measurement": "The level of expressed mRNA in the presence of chemical substance/The level of expressed mRNA in the absence of chemical substance", "setting": "yeast gene YKL096W", "value": 0.5},
      {"measurement": "The level of expressed mRNA in the presence of chemical substance/The level of expressed mRNA in the absence of chemical substance", "setting": "yeast gene YKL165C", "value": 0.4},
      {"measurement": "The level of expressed mRNA in the presence of chemical substance/The level of expressed mRNA in the absence of chemical substance", "setting": "yeast gene YKL193C", "value": 1.6},
      {"measurement": "The level of expressed mRNA in the presence of chemical substance/The level of expressed mRNA in the absence of chemical substance", "setting": "yeast gene YLR120C", "value": 1.6},
      {"measurement": "The level of expressed mRNA in the presence of chemical substance/The level of expressed mRNA in the absence of chemical substance", "setting": "yeast gene YLR136C", "value": 6.0},
      {"measurement": "The level of expressed mRNA in the presence of chemical substance/The level of expressed mRNA in the absence of chemical substance", "setting": "yeast gene YLR178C", "value": 4.1},
      {"measurement": "The level of expressed mRNA in the presence of chemical substance/The level of expressed mRNA in the absence of chemical substance", "setting": "yeast gene YLR250W", "value": 2.4},
      {"measurement": "The level of expressed mRNA in the presence of chemical substance/The level of expressed mRNA in the absence of chemical substance", "setting": "yeast gene YLR327C", "value": 8.3},
      {"measurement": "The level of expressed mRNA in the presence of chemical substance/The level of expressed mRNA in the absence of chemical substance", "setting": "yeast gene YLR356W", "value": 1.6},
      {"measurement": "The level of expressed mRNA in the presence of chemical substance/The level of expressed mRNA in the absence of chemical substance", "setting": "yeast gene YLR362W", "value": 3.3},
      {"measurement": "The level of expressed mRNA in the presence of chemical substance/The level of expressed mRNA in the absence of chemical substance", "setting": "yeast gene YLR391W", "value": 0.7},
      {"measurement": "The level of expressed mRNA in the presence of chemical substance/The level of expressed mRNA in the absence of chemical substance", "setting": "yeast gene YLR429W", "value": 1.3},
      {"measurement": "The level of expressed mRNA in the presence of chemical substance/The level of expressed mRNA in the absence of chemical substance", "setting": "yeast gene YMR004W", "value": 3.4},
      {"measurement": "The level of expressed mRNA in the presence of chemical substance/The level of expressed mRNA in the absence of chemical substance", "setting": "yeast gene YMR094W", "value": 0.9},
      {"measurement": "The level of expressed mRNA in the presence of chemical substance/The level of expressed mRNA in the absence of chemical substance", "setting": "yeast gene YMR104C", "value": 3.2},
      {"measurement": "The level of expressed mRNA in the presence of chemical substance/The level of expressed mRNA in the absence of chemical substance", "setting": "yeast gene YMR219W", "value": 0.9},
      {"measurement": "The level of expressed mRNA in the presence of chemical substance/The level of expressed mRNA in the absence of chemical substance", "setting": "yeast gene YMR226C", "value": 2.2},
      {"measurement": "The level of expressed mRNA in the presence of chemical substance/The level of expressed mRNA in the absence of chemical substance", "setting": "yeast gene YMR275C", "value": 2.1},
      {"measurement": "The level of expressed mRNA in the presence of chemical substance/The level of expressed mRNA in the absence of chemical substance", "setting": "yeast gene YMR276W", "value": 1.7},
      {"measurement": "The level of expressed mRNA in the presence of chemical substance/The level of expressed mRNA in the absence of chemical substance", "setting": "yeast gene YMR314W", "value": 2.7},
      {"measurement": "The level of expressed mRNA in the presence of chemical substance/The level of expressed mRNA in the absence of chemical substance", "setting": "yeast gene YNL006W", "value": 4.0},
      {"measurement": "The level of expressed mRNA in the presence of chemical substance/The level of expressed mRNA in the absence of chemical substance", "setting": "yeast gene YNL007C", "value": 1.7},
      {"measurement": "The level of expressed mRNA in the presence of chemical substance/The level of expressed mRNA in the absence of chemical substance", "setting": "yeast gene YNL093W", "value": 2.0},
      {"measurement": "The level of expressed mRNA in the presence of chemical substance/The level of expressed mRNA in the absence of chemical substance", "setting": "yeast gene YNL333W", "value": 2.1},
      {"measurement": "The level of expressed mRNA in the presence of chemical substance/The level of expressed mRNA in the absence of chemical substance", "setting": "yeast gene YNR010W", "value": 0.9},
      {"measurement": "The level of expressed mRNA in the presence of chemical substance/The level of expressed mRNA in the absence of chemical substance", "setting": "yeast gene YNR069C", "value": 5.8},
      {"measurement": "The level of expressed mRNA in the presence of chemical substance/The level of expressed mRNA in the absence of chemical substance", "setting": "yeast gene YOL013C", "value": 1.0},
      {"measurement": "The level of expressed mRNA in the presence of chemical substance/The level of expressed mRNA in the absence of chemical substance", "setting": "yeast gene YOL164W", "value": 3.6},
      {"measurement": "The level of expressed mRNA in the presence of chemical substance/The level of expressed mRNA in the absence of chemical substance", "setting": "yeast gene YOR036W", "value": 1.9},
      {"measurement": "The level of expressed mRNA in the presence of chemical substance/The level of expressed mRNA in the absence of chemical substance", "setting": "yeast gene YOR117W", "value": 1.8},
      {"measurement": "The level of expressed mRNA in the presence of chemical substance/The level of expressed mRNA in the absence of chemical substance", "setting": "yeast gene YOR124C", "value": 1.9},
      {"measurement": "The level of expressed mRNA in the presence of chemical substance/The level of expressed mRNA in the absence of chemical substance", "setting": "yeast gene YOR132W", "value": 1.6},
      {"measurement": "The level of expressed mRNA in the presence of chemical substance/The level of expressed mRNA in the absence of chemical substance", "setting": "yeast gene YOR157C", "value": 2.6},
      {"measurement": "The level of expressed mRNA in the presence of chemical substance/The level of expressed mRNA in the absence of chemical substance", "setting": "yeast gene YOR181W", "value": 0.5},
      {"measurement": "The level of expressed mRNA in the presence of chemical substance/The level of expressed mRNA in the absence of chemical substance", "setting": "yeast gene YOR185C", "value": 2.9},
      {"measurement": "The level of expressed mRNA in the presence of chemical substance/The level of expressed mRNA in the absence of chemical substance", "setting": "yeast gene YOR198C", "value": 1.4},
      {"measurement": "The level of expressed mRNA in the presence of chemical substance/The level of expressed mRNA in the absence of chemical substance", "setting": "yeast gene YOR259C", "value": 1.5},
      {"measurement": "The level of expressed mRNA in the presence of chemical substance/The level of expressed mRNA in the absence of chemical substance", "setting": "yeast gene YOR261C", "value": 2.5},
      {"measurement": "The level of expressed mRNA in the presence of chemical substance/The level of expressed mRNA in the absence of chemical substance", "setting": "yeast gene YOR288C", "value": 1.0},
      {"measurement": "The level of expressed mRNA in the presence of chemical substance/The level of expressed mRNA in the absence of chemical substance", "setting": "yeast gene YOR355W", "value": 0.8},
      {"measurement": "The level of expressed mRNA in the presence of chemical substance/The level of expressed mRNA in the absence of chemical substance", "setting": "yeast gene YOR383C", "value": 4.5},
      {"measurement": "The level of expressed mRNA in the presence of chemical substance/The level of expressed mRNA in the absence of chemical substance", "setting": "yeast gene YPL089C", "value": 2.5},
      {"measurement": "The level of expressed mRNA in the presence of chemical substance/The level of expressed mRNA in the absence of chemical substance", "setting": "yeast gene YPL109C", "value": 1.5},
      {"measurement": "The level of expressed mRNA in the presence of chemical substance/The level of expressed mRNA in the absence of chemical substance", "setting": "yeast gene YPL149W", "value": 3.7},
      {"measurement": "The level of expressed mRNA in the presence of chemical substance/The level of expressed mRNA in the absence of chemical substance", "setting": "yeast gene YPL154C", "value": 1.7},
      {"measurement": "The level of expressed mRNA in the presence of chemical substance/The level of expressed mRNA in the absence of chemical substance", "setting": "yeast gene YPR103W", "value": 2.0},
      {"measurement": "The level of expressed mRNA in the presence of chemical substance/The level of expressed mRNA in the absence of chemical substance", "setting": "yeast gene YPR108W", "value": 2.8}
    ]}
  ]
}
